In assay [1] the test system is M. tuberculosis H37Rv-GFP. The assay is classed as cell-based, Mycobacterium tuberculosis. To be noted: read-out: EC50_H37Rv.
Assay [2] has as its system Mycobacterium tuberculosis H37Rv in human macrophages THP-1.
Procedure: Mycobacterium tuberculosis In Vitro H37Rv in Human Macrophaqes THP-1 Inhibition Assay (Intracellular Assay)
Procedure was carried out as described in Sorrentino, F. et al. (2016) Antimicrob. Agents Chemother. 60 (1), 640-645 (supplemental material), except that before THP-1 infected cells were seeded in 384 well plates, infected macrophages were filtered in the last step of wash steps with a 40 um cell strainer to remove cell clumps and obtain single cell suspension.
The compounds of the examples were tested essentially in accordance with the above-mentioned assay (without the presence of ethionamide).
The mark [3] stands for this setting: potentiation of ethionamide, ETH 0.1 μg/ml, […], 5 days at 37° C., […].

Results on 42 molecules are retold here after patent US11253499B2, “Compounds” (priority 2017, dated 2022).

As usually defined, the IC50 is the midpoint of a concentration-inhibition curve.

Read-outs that look alike come from different tables or passages of the source.

Regarding `O=C(CCC(F)(F)F)N1CC(c2ccc(F)cc2)C1` [Example 1, 4,4,4-trifluoro-1-[3-(4-fluorophenyl)azetidin-1-yl]butan-1-one], the EC50 in assay [1] was less than 50 nM. The half-inhibitory concentration (IC50) in assay [2] was less than 50 nM.
As to `O=C(CCC(F)(F)F)N1CC(c2cccc(C(F)(F)F)c2)C1` [Example 2, 4,4,4-trifluoro-1-[3-[3-(trifluoromethyl)phenyl]azetidin-1-yl]butan-1-one], the EC50 in assay [1] was less than 50 nM. Moreover, in assay [2], the IC50 is less than 50 nM.
As to `O=C(CCCC(F)(F)F)N1CC(c2ccc(F)cc2)C1` [Example 3, 5,5,5-trifluoro-1-[3-(4-fluorophenyl)azetidin-1-yl]pentan-1-one], in assay [1], the EC50 is less than 50 nM. Moreover, the half-inhibitory concentration (IC50) in assay [2] was 50 to 250 nM.
The matching figures for `O=C(CCC(F)(F)F)N1CC(C2CC2)C1` [Example 4, 1-(3-cyclopropylazetidin-1-yl)-4,4,4-trifluoro-butan-1-one]: 250 to 500 nM and 50 to 250 nM.
Regarding `O=C(CCC(F)(F)F)N1CC(C2CCCC2)C1` [Example 5, 1-(3-cyclopentylazetidin-1-yl)-4,4,4-trifluoro-butan-1-one], in assay [1] (setting [3]), the EC50 was less than 50 nM.
`O=C(CCC(F)(F)F)N1CC(C2CCCCC2)C1` [Example 6, 1-(3-cyclohexylazetidin-1-yl)-4,4,4-trifluoro-butan-1-one]: in assay [1] (setting [3]), the EC50 is less than 50 nM.
Take `O=C(CCC(F)(F)F)N1CC(c2cc(C(F)(F)F)ccn2)C1` [Example 7, 4,4,4-trifluoro-1-[3-[4-(trifluoromethyl)-2-pyridyl]azetidin-1-yl]butan-1-one]: in assay [1], the EC50 was in the range of 50 to 250 nM. For the same molecule, the half-inhibitory concentration (IC50) in assay [2] is 50 to 250 nM.
In the case of `O=C(CCC(F)(F)F)N1CC(c2ccc(C(F)(F)F)cn2)C1` [Example 8, 4,4,4-trifluoro-1-[3-[5-(trifluoromethyl)-2-pyridyl]azetidin-1-yl]butan-1-one], the EC50 in assay [1] lay in the range of 250 to 500 nM. Moreover, the IC50 in assay [2] is 1000 to 10000 nM.
On the same counts, the results for `O=C(CCC(F)(F)F)N1CC(c2ccc(F)cn2)C1` [Example 9, 4,4,4-trifluoro-1-[3-(5-fluoro-2-pyridyl)azetidin-1-yl]butan-1-one] are 50 to 250 nM and 50 to 250 nM.
As for `O=C(CCC(F)(F)F)N1CC(c2ncc(F)cc2F)C1` [Example 10, 1-[3-(3,5-difluoro-2-pyridyl)azetidin-1-yl]-4,4,4-trifluoro-butan-1-one], in assay [1] (setting [3]), the EC50 is less than 50 nM.
Take `O=C(CCC(F)(F)F)N1CC(c2cc(Cl)ccn2)C1` [Example 11, 1-[3-(4-chloro-2-pyridyl)azetidin-1-yl]-4,4,4-trifluoro-butan-1-one]: the EC50 in assay [1] lay in the range of 50 to 250 nM. For the same molecule, the IC50 in assay [2] was in the range of 50 to 250 nM.
As to `O=C(CCC(F)(F)F)N1CC(c2ccnc(C(F)(F)F)c2)C1` [Example 12, 4,4,4-trifluoro-1-[3-[2-(trifluoromethyl)-4-pyridyl]azetidin-1-yl]butan-1-one], the EC50 in assay [1] was in the range of 250 to 500 nM. The molecule further returned an IC50 in assay [2] of 50 to 250 nM.
The matching figures for `O=C(CCC(F)(F)F)N1CC(c2ccc(Cl)cc2)C1` [Example 13, 1-[3-(4-chlorophenyl)azetidin-1-yl]-4,4,4-trifluoro-butan-1-one]: less than 50 nM and 50 to 250 nM.
The matching figures for `O=C(CCC(F)(F)F)N1CC(c2ccc(OC(F)(F)F)cc2)C1` [Example 14, 4,4,4-trifluoro-1-[3-[4-(trifluoromethoxy)phenyl]azetidin-1-yl]butan-1-one]: less than 50 nM and 250 to 500 nM.
The matching figures for `O=C(CCC(F)(F)F)N1CC(c2cccc(OC(F)(F)F)c2)C1` [Example 15, 4,4,4-trifluoro-1-[3-[3-(trifluoromethoxy)phenyl]azetidin-1-yl]butan-1-one]: less than 50 nM and less than 50 nM.
On to `O=C(CCC(F)(F)F)N1CC(c2ccc(C(F)(F)F)cc2)C1` [Example 16], for which the EC50 in assay [1] was in the range of 50 to 250 nM. Besides, in assay [2], the IC50 fell in the range of 250 to 500 nM.
On the same counts, the results for `O=C(CCC(F)(F)F)N1CC(c2cccc(Cl)c2)C1` [Example 17, 1-[3-(3-chlorophenyl)azetidin-1-yl]-4,4,4-trifluoro-butan-1-one] are less than 50 nM and less than 50 nM.
The matching figures for `O=C(CCC(F)(F)F)N1CC(c2ccc(F)cc2F)C1` [Example 18, 1-[3-(2,4-difluorophenyl)azetidin-1-yl]-4,4,4-trifluoro-butan-1-one]: less than 50 nM and less than 50 nM.
The matching figures for `O=C(CCC(F)(F)F)N1CC(c2ccc(Cl)nc2)C1` [Example 19]: 250 to 500 nM and 50 to 250 nM.
As for `O=C(CCC(F)(F)F)N1CC(c2ccc(F)cc2Cl)C1` [Example 20, 1-[3-(2-chloro-4-fluoro-phenyl)azetidin-1-yl]-4,4,4-trifluoro-butan-1-one], in assay [1], the EC50 lay within 50 to 250 nM. For the same molecule, in assay [2], the IC50 fell in the range of 50 to 250 nM.
Regarding `O=C(CCC(F)(F)F)N1CC(c2ccc(C(F)(F)F)nc2)C1` [Example 21, 4,4,4-trifluoro-1-[3-[6-(trifluoromethyl)-3-pyridyl]azetidin-1-yl]butan-1-one], the EC50 in assay [1] fell in the range of 1000 to 10000 nM. The molecule also yielded an IC50 in assay [2] of 250 to 500 nM.
`COc1ccc(C2CN(C(=O)CCC(F)(F)F)C2)cn1` [Example 22, 4,4,4-trifluoro-1-[3-(6-methoxy-3-pyridyl)azetidin-1-yl]butan-1-one]: the EC50 in assay [1] (setting [3]) is less than 50 nM.
`O=C(CCC(F)(F)F)N1CC(c2cncc(Cl)c2)C1` [Example 23, 1-[3-(5-chloro-3-pyridyl)azetidin-1-yl]-4,4,4-trifluoro-butan-1-one]: in assay [1], the EC50 was in the range of 250 to 500 nM. Besides, the IC50 in assay [2] was less than 50 nM.
`O=C(CCC(F)(F)F)N1CC(c2cncc(C(F)(F)F)c2)C1` [Example 24, 4,4,4-trifluoro-1-[3-[5-(trifluoromethyl)-3-pyridyl]azetidin-1-yl]butan-1-one]: the EC50 in assay [1] (setting [3]) lay in the range of 1000 to 10000 nM.
Take `O=C(CCC(F)(F)F)N1CC(c2ccc(F)cc2C(F)(F)F)C1` [Example 25, 4,4,4-trifluoro-1-[3-[4-fluoro-2-(trifluoromethyl)phenyl]azetidin-1-yl]butan-1-one]: in assay [1], the EC50 fell in the range of 50 to 250 nM. The molecule also gave an IC50 in assay [2] of 50 to 250 nM.
For `O=C(CCC(F)(F)F)N1CC(c2cccnc2)C1` [Example 26, 4,4,4-trifluoro-1-[3-(3-pyridyl)azetidin-1-yl]butan-1-one], the EC50 in assay [1] lay within 1000 to 10000 nM. Further, in assay [2], the IC50 was 1000 to 10000 nM.
Take `O=C(CCC(F)(F)F)N1CC(c2ccc(F)c(F)c2)C1` [Example 27, 1-[3-(3,4-difluorophenyl)azetidin-1-yl]-4,4,4-trifluoro-butan-1-one]: in assay [1] (setting [3]), the EC50 was less than 50 nM.
With `Cc1cc(F)ccc1C1CN(C(=O)CCC(F)(F)F)C1` [Example 28, 4,4,4-trifluoro-1-[3-(4-fluoro-2-methyl-phenyl)azetidin-1-yl]butan-1-one], in assay [1], the EC50 is 50 to 250 nM. The molecule also gave an IC50 in assay [2] of 50 to 250 nM.
Consider `O=C(CCC(F)(F)F)N1CC(c2cccc(F)c2)C1` [Example 29, 4,4,4-trifluoro-1-[3-(3-fluorophenyl)azetidin-1-yl]butan-1-one], for which the EC50 in assay [1] was less than 50 nM. This molecule also returned an IC50 in assay [2] of less than 50 nM.
In the case of `O=C(CCC(F)(F)F)N1CC(c2ccncc2)C1` [Example 30, 4,4,4-trifluoro-1-[3-(4-pyridyl)azetidin-1-yl]butan-1-one], the EC50 in assay [1] (setting [3]) is 1000 to 10000 nM.
`O=C(CCC(F)(F)F)N1CC(c2ccnc(F)c2)C1` [Example 31, 4,4,4-trifluoro-1-[3-(2-fluoro-4-pyridyl)azetidin-1-yl]butan-1-one]: the EC50 in assay [1] (setting [3]) lay in the range of 500 to 1000 nM.
Still for that read-out and setting: in the case of `O=C(CCC(F)(F)F)N1CC(c2ccnc(Cl)c2)C1` [Example 32, 1-[3-(2-chloro-4-pyridyl)azetidin-1-yl]-4,4,4-trifluoro-butan-1-one] it was 250 to 500 nM; in that of `O=C(CCC(F)(F)F)N1CC(c2ccc(F)nc2)C1` [Example 33, 4,4,4-trifluoro-1-[3-(6-fluoro-3-pyridyl)azetidin-1-yl]butan-1-one], 500 to 1000 nM.
For the molecule `O=C(CCC(F)(F)F)N1CC(c2cc(F)c(F)c(F)c2)C1` [Example 34, 4,4,4-trifluoro-1-[3-(3,4,5-trifluorophenyl)azetidin-1-yl]butan-1-one], the EC50 in assay [1] is less than 50 nM. The IC50 in assay [2] lay within 50 to 250 nM.
Turning to `O=C(CCC(F)(F)F)N1CC(N2CCC(F)(F)CC2)C1` [Example 35, 1-[3-(4,4-difluoro-1-piperidyl)azetidin-1-yl]-4,4,4-trifluoro-butan-1-one], in assay [1] (setting [3]), the EC50 lay within 500 to 1000 nM.
Same read-out and setting: in the case of `CC(C)Oc1ccc(C2CN(C(=O)CCC(F)(F)F)C2)cn1` [Example 36, 4,4,4-trifluoro-1-[3-(6-isopropoxy-3-pyridyl)azetidin-1-yl]butan-1-one] it was 50 to 250 nM; in that of `O=C(CCC(F)(F)F)N1CC(c2ccc(OCC(F)(F)F)nc2)C1` [Example 37, 4,4,4-trifluoro-1-[3-[6-(2,2,2-trifluoroethoxy)-3-pyridyl]azetidin-1-yl]butan-1-one], 250 to 500 nM.
In the case of `O=C(CCC(F)(F)F)N1CC(C2CCOCC2)C1` [Example 38, 4,4,4-trifluoro-1-(3-(tetrahydro-2H-pyran-4-yl)azetidin-1-yl)butan-1-one], the EC50 in assay [1] fell in the range of 250 to 500 nM. The molecule further returned an IC50 in assay [2] of 50 to 250 nM.
In the case of `O=C(CCC(F)(F)F)N1CC(N2CCCCC2)C1` [Example 39, 4,4,4-trifluoro-1-(3-(piperidin-1-yl)azetidin-1-yl)butan-1-one], in assay [1] (setting [3]), the EC50 fell in the range of 1000 to 10000 nM.
Same read-out and setting: under `O=C(CCC(F)(F)F)N1CC(C2CCC(F)(F)CC2)C1` [Example 40, 1-(3-(4,4-difluorocyclohexyl)azetidin-1-yl)-4,4,4-trifluorobutan-1-one] stands 50 to 250 nM; under `N#Cc1ccc(C2CN(C(=O)CCC(F)(F)F)C2)cc1` [Example 43, 4-(1-(4,4,4-trifluorobutanoyl)azetidin-3-yl)benzonitrile], 1000 to 10000 nM.
Regarding `O=C(CCC(F)(F)F)N1CC(F)(c2ccc(F)cc2)C1` [Example 44, 4,4,4-trifluoro-1-(3-fluoro-3-(4-fluorophenyl)azetidin-1-yl)butan-1-one], the EC50 in assay [1] (setting [3]) was less than 50 nM.
